According to patent US12421254B2, “KRAS modulators and uses thereof” (Quanta Therapeutics, Inc., priority 2023, dated 2025):
pIC50: −log10 of the molar value.

Assays:
[1] = molecular target: GST-tagged KRAS-G12D (2-169) (Homo sapiens, UniProt P01116, G12D); experiment: Nucleotide exchange assay (NEA), SOS-mediated, HTRF, KRAS G12D; type: biochemical; conditions: Table 4; IC50 extracted at 30 min; 20 nM SOScat; read-out: NEA G12D IC50
Text: (§1) This activity is tightly regulated by GTPase activating proteins (GAPs) and guanine nucleotide exchange factors (GEFs). GEFs, such as SOS1/2, activate Ras proteins by exchanging GDP for GTP, thus returning Ras to its active conformation (Simanshu, Nissley, & McCormick, 2017). […] Homogenous time resolved fluorescence (HTRF) was used to detect SOS-mediated binding of a fluorescent GTP analog, GTP-DY-647P1 (Jena Biosciences NU-820-647P1) to GST-tagged KRAS-G12D (2-169) or to GST-tagged KRAS-G12V (2-169, Reaction Biology, MSC-11-540).
(§2) GST-tagged KRAS-G12D (2-169) and anti-GST MAb Tb Cryptate Gold (CisBio 61GSTTLB) were diluted into assay buffer (20 mM HEPES, pH 7.3, 150 mM NaCl, 5 mM MgCl2, 0.05% BSA 0.0025% NP40, 1 mM DTT) to prepare a 2.5× donor solution. 5× compound was added to the protein mixture and incubated for 1 h at RT. 2.5× acceptor solution containing SOS1cat (564-1049, Reaction Biology MSC-11-502) and GTP-DY-647P1 were then added to the donor KRAS mixture such that the final concentration of the reaction contained 0.25 nM GST-tagged KRAS-G12D (2-169), 20 nM SOScat, and 150 nM GTP-DY-647P1. The reaction was monitored using at RT with the Envision multimode plate reader (Ex/Em 337/665, […]) up to 90 minutes at 5 minute intervals. To monitor KRAS-G12V SOS-mediated nucleotide exchange, 80 nM SOS was added to reaction instead of 20 nM. All other components were the same as previously described. Data was blanked to reactions without SOS1 and % inhibition was calculated such that DMSO only =0% and blank=100%. Curve fitting was done using a 4 parameter fit. Reported IC50 values were extracted at 30 min and 90 min for the KRAS-G12D and KRAS-G12V assays, respectively.
NEA KRAS G12D IC50 (uM) values of selected compounds are depicted in Table 2 with compounds having a value <0.01 uM as ++++; ≥0.01 uM to 0.1 uM as +++; ≥0.1 uM to 1 uM as ++; ≥1 uM to 20 uM as +; and ≥20 uM as NA.

[2] = molecular target: GST-tagged KRAS-G12V (2-169) (Homo sapiens, UniProt P01116, G12V); experiment: Nucleotide exchange assay (NEA), SOS-mediated, HTRF, KRAS G12V; type: biochemical; conditions: Table 4; IC50 extracted at 90 min; 80 nM SOS
GST-tagged KRAS-G12V (2-169), sequence (P01116 2-169 isoform P01116-2 G12V): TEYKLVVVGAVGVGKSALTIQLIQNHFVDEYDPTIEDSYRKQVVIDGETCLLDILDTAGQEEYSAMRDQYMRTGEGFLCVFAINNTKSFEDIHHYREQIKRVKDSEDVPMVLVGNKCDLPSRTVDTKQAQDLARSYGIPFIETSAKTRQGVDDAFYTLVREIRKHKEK
Text: as §1, §2

GST-tagged KRAS-G12D (2-169), sequence (P01116 2-169 isoform P01116-2 G12D): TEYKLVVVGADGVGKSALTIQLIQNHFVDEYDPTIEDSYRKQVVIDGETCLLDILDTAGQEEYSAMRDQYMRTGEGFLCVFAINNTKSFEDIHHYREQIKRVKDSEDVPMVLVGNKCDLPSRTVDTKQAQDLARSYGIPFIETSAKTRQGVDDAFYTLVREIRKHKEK

CO/N=C(\C(C)=O)C(=O)N1[C@@H]2CC[C@H]1CN(c1nc(OC[C@@]34CCCN3C[C@H](F)C4)nc(N3CC4(C3)SCc3sc(N)c(C#N)c34)n1)C2 [Compound 161, 2-amino-1′-[4-[[(2R,8S)-2-fluoro-1,2,3,5,6,7-hexahydropyrrolizin-8-yl]methoxy]-6-[(1R,5S)-8-[(2Z)-2-methoxyimino-3-oxo-butanoyl]-3,8-diazabicyclo[3.2.1]octan-3-yl]-1,3,5-triazin-2-yl]spiro[6H-thieno[3,4-b]thiophene-4,3′-azetidine]-3-carbonitrile]
pIC50 [1]: 4.70 to 6.00
pIC50 [2]: 6.00 to 7.00

CN(Cc1cc(C(N)=O)nn1C)c1nc(OC[C@@]23CCCN2C[C@H](F)C3)nc(N2CC3(CCc4sc(N)c(C#N)c43)C2)n1 [Compound 135, 5-[[[4-(2-amino-3-cyano-spiro[5,6-dihydrocyclopenta[b]thiophene-4,3′-azetidine]-1′-yl)-6-[[(2R,8S)-2-fluoro-1,2,3,5,6,7-hexahydropyrrolizin-8-yl]methoxy]-1,3,5-triazin-2-yl]-methyl-amino]methyl]-1-methyl-pyrazole-3-carboxamide]
pIC50 [1]: 6.00 to 7.00
pIC50 [2]: 6.00 to 7.00

CCN(c1nc(OCC23CCC(CN(C)C2)N3C)nc(N2CC3(C2)SCc2sc(N)c(C#N)c23)n1)[C@H](C)c1cccnc1N (stereo partly drawn) [Compound 218, 2′-amino-1-(4-(((R)-1-(2-aminopyridin-3-yl)ethyl)(ethyl)amino)-6-((3,8-dimethyl-3,8-diazabicyclo[3.2.1]octan-1-yl)methoxy)-1,3,5-triazin-2-yl)-6′H-spiro[azetidine-3,4′-thieno[3,4-b]thiophene]-3′-carbonitrile]
pIC50 [1]: 7.00 to 8.00
pIC50 [2]: > 8.00

C[C@H](c1cccnc1N)N(C)c1nc(OC[C@@]23CCCN2C[C@H](F)C3)nc(N2CCC3(CCCc4sc(N)c(C#N)c43)C2=O)n1 (single isomer, unassigned) [Compound 175A, (*)-2-amino-1′-(4-(((R)-1-(2-aminopyridin-3-yl)ethyl)(methyl)amino)-6-(((2R,7aS)-2-fluorotetrahydro-1H-pyrrolizin-7a(5H)-yl)methoxy)-1,3,5-triazin-2-yl)-2′-oxo-6,7-dihydro-5H-spiro[benzo[b]thiophene-4,3′-pyrrolidine]-3-carbonitrile]
pIC50 [1]: 7.00 to 8.00
pIC50 [2]: > 8.00

N#Cc1c(N)sc2c1C1(CN(c3nc(OC[C@@]45CCCN4C[C@H](F)C5)nc(N4C5CCC4CC(=O)NC5)n3)C1)SC2 (stereo partly drawn) [Compound 271, 2-amino-1′-[4-[[(2R,8S)-2-fluoro-1,2,3,5,6,7-hexahydropyrrolizin-8-yl]methoxy]-6-(4-oxo-3,9-diazabicyclo[4.2.1]nonan-9-yl)-1,3,5-triazin-2-yl]spiro[6H-thieno[3,4-b]thiophene-4,3′-azetidine]-3-carbonitrile]
pIC50 [1]: 4.70 to 6.00
pIC50 [2]: 6.00 to 7.00

CN(c1nc(OC[C@@]23CCCN2C[C@H](F)C3)nc(N2CC3(CCc4sc(N)c(C#N)c43)C2)n1)C1CCOC1 (stereo partly drawn) [Compound 36, 2-amino-1′-[4-[[(2R,8S)-2-fluoro-1,2,3,5,6,7-hexahydropyrrolizin-8-yl]methoxy]-6-[methyl(tetrahydrofuran-3-yl)amino]-1,3,5-triazin-2-yl]spiro[5,6-dihydrocyclopenta[b]thiophene-4,3′-azetidine]-3-carbonitrile]
pIC50 [1]: 6.00 to 7.00
pIC50 [2]: 6.00 to 7.00

N#Cc1c(N)sc2c1C1(CN(c3nc(OC[C@@]45CCCN4C[C@H](F)C5)nc(N(CC4(O)CC4)C4(C#N)CC4)n3)C1)SC2 [Compound 263, 2-amino-1′-[4-[(1-cyanocyclopropyl)-[(1-hydroxycyclopropyl)methyl]amino]-6-[[(2R,8S)-2-fluoro-1,2,3,5,6,7-hexahydropyrrolizin-8-yl]methoxy]-1,3,5-triazin-2-yl]spiro[6H-thieno[3,4-b]thiophene-4,3′-azetidine]-3-carbonitrile]
pIC50 [1]: 7.00 to 8.00
pIC50 [2]: 7.00 to 8.00

N#Cc1c(N)sc2c1C1(CC2)CN(c2nc(OCC3(O)CC3)nc(OC[C@@]34CCCN3C[C@H](F)C4)n2)C1 [Compound 76, 2-amino-1′-[4-[[(2R,8S)-2-fluoro-1,2,3,5,6,7-hexahydropyrrolizin-8-yl]methoxy]-6-[(1-hydroxycyclopropyl)methoxy]-1,3,5-triazin-2-yl]spiro[5,6-dihydrocyclopenta[b]thiophene-4,3′-azetidine]-3-carbonitrile]
pIC50 [1]: 4.70 to 6.00
pIC50 [2]: 6.00 to 7.00

CC(c1cccnc1N)N(CCO)c1nc(OC[C@@]23CCCN2C[C@H](F)C3)nc(N2CC3(CCc4sc(N)c(C#N)c43)C2)n1 (stereo partly drawn) [Compound 110, 2-amino-1′-[4-[1-(2-amino-3-pyridyl)ethyl-(2-hydroxyethyl)amino]-6-[[(2R,8S)-2-fluoro-1,2,3,5,6,7-hexahydropyrrolizin-8-yl]methoxy]-1,3,5-triazin-2-yl]spiro[5,6-dihydrocyclopenta[b]thiophene-4,3′-azetidine]-3-carbonitrile]
pIC50 [1]: > 8.00
pIC50 [2]: > 8.00

C[C@H](c1ccc(P(C)(C)=O)nc1N)N(C)c1nc(OC[C@@]23CCCN2C[C@H](F)C3)nc(N2CC3(C2)SCc2sc(N)c(C#N)c23)n1 [Compound 232, 2-amino-1′-[4-[1-(2-amino-6-dimethylphosphoryl-3-pyridyl)ethyl-methyl-amino]-6-[[(2R,8S)-2-fluoro-1,2,3,5,6,7-hexahydropyrrolizin-8-yl]methoxy]-1,3,5-triazin-2-yl]spiro[6H-thieno[3,4-b]thiophene-4,3′-azetidine]-3-carbonitrile]
pIC50 [1]: 4.70 to 6.00
pIC50 [2]: 6.00 to 7.00

N#Cc1c(N)sc2c1C1(CN(c3nc(OCC4(CN5CCOCC5)CC4)nc(N4CCNC[C@@H]4CO)n3)C1)SC2 [Compound 185, (R)-2′-amino-1-(4-(2-(hydroxymethyl)piperazin-1-yl)-6-((1-(morpholinomethyl)cyclopropyl)methoxy)-1,3,5-triazin-2-yl)-6′H-spiro[azetidine-3,4′-thieno[3,4-b]thiophene]-3′-carbonitrile]
pIC50 [1]: > 8.00
pIC50 [2]: 6.00 to 7.00

N#Cc1c(N)sc2c1C1(CN(c3nc(OC[C@@]45CCCN4C[C@H](F)C5)nc(N(CC(N)=O)C4(C#N)CC4)n3)C1)SC2 [Compound 266, 2-[[4-(2-amino-3-cyano-spiro[6H-thieno[3,4-b]thiophene-4,3′-azetidine]-1′-yl)-6-[[(2R,8S)-2-fluoro-1,2,3,5,6,7-hexahydropyrrolizin-8-yl]methoxy]-1,3,5-triazin-2-yl]-(1-cyanocyclopropyl)amino]acetamide]
pIC50 [1]: > 8.00
pIC50 [2]: > 8.00

CCN(c1nc(OC[C@]23CC[C@H](CN(C)C2)N3)nc(N2CC3(C2)SCc2sc(N)c(C#N)c23)n1)[C@H](C)c1cccnc1N [Compound 214, 2′-amino-1-(4-(((R)-1-(2-aminopyridin-3-yl)ethyl)(ethyl)amino)-6-(((1S,5R)-3-methyl-3,8-diazabicyclo[3.2.1]octan-1-yl)methoxy)-1,3,5-triazin-2-yl)-6′H-spiro[azetidine-3,4′-thieno[3,4-b]thiophene]-3′-carbonitrile]
pIC50 [1]: > 8.00
pIC50 [2]: > 8.00

C[C@]1(O)C[C@H](O)CN(c2nc(OC[C@@]34CCCN3C[C@H](F)C4)nc(N3CC4(CCc5sc(N)c(C#N)c54)C3)n2)C1 [Compound 75, 2-amino-1′-[4-[(3S,5S)-3,5-dihydroxy-3-methyl-1-piperidyl]-6-[[(2R,8S)-2-fluoro-1,2,3,5,6,7-hexahydropyrrolizin-8-yl]methoxy]-1,3,5-triazin-2-yl]spiro[5,6-dihydrocyclopenta[b]thiophene-4,3′-azetidine]-3-carbonitrile]
pIC50 [1]: 4.70 to 6.00
pIC50 [2]: 6.00 to 7.00

C[C@H](c1cccnc1N)N(C)c1nc(OC[C@@]23CCCN2C[C@H](F)C3)nc(N2CC3(CCc4cnn(C)c43)C2)n1 [Compound 278, N-[(1R)-1-(2-amino-3-pyridyl)ethyl]-4-[[(2R,8S)-2-fluoro-1,2,3,5,6,7-hexahydropyrrolizin-8-yl]methoxy]-N-methyl-6-(1-methylspiro[4,5-dihydrocyclopenta[d]pyrazole-6,3′-azetidine]-1′-yl)-1,3,5-triazin-2-amine]
pIC50 [1]: 4.70 to 6.00
pIC50 [2]: 4.70 to 6.00

CC(C1=NN=CC1Cl)N(C)c1nc(OC[C@@]23CCCN2C[C@H](F)C3)nc(N2CC3(CCc4sc(N)c(C#N)c43)C2)n1 (stereo partly drawn) [Compound 127, 2-amino-1′-[4-[1-(4-chloro-1H-pyrazol-5-yl)ethyl-methyl-amino]-6-[[(2R,8S)-2-fluoro-1,2,3,5,6,7-hexahydropyrrolizin-8-yl]methoxy]-1,3,5-triazin-2-yl]spiro[5,6-dihydrocyclopenta[b]thiophene-4,3′-azetidine]-3-carbonitrile]
pIC50 [1]: 4.70 to 6.00
pIC50 [2]: 6.00 to 7.00
